According to PubChem BioAssay (NCI):
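Assay format: 96-well plates, 48-hour exposure. Abbreviation: GI50, concentration required for 50% inhibition of growth. TGI is the concentration that stops growth completely.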

Tests used:
Experiment in all cases: growth of human tumour cells (NCI), 48 h; in the data active = GI50 below about 0.43 µM; inactive = the rest
786-0 renal = system: 786-0 renal
A498 renal = system: A498 renal
A549 NSCLC = system: A549 NSCLC
ACHN renal = system: ACHN renal
BT-549 breast = system: BT-549 breast
CAKI-1 renal = system: CAKI-1 renal
CCRF-CEM leukemia = system: CCRF-CEM leukemia
COLO 205 colon = system: COLO 205 colon
DU-145 prostate = system: DU-145 prostate
EKVX NSCLC = system: EKVX NSCLC
HCC-2998 colon = system: HCC-2998 colon
HCT-116 colon = system: HCT-116 colon
HCT-15 colon = system: HCT-15 colon
HOP-62 NSCLC = system: HOP-62 NSCLC
HOP-92 NSCLC = system: HOP-92 NSCLC
K-562 leukemia = system: K-562 leukemia
KM12 colon = system: KM12 colon
LOX IMVI melanoma = system: LOX IMVI melanoma
M14 melanoma = system: M14 melanoma
MCF7 breast = system: MCF7 breast
MDA-MB-231 breast = system: MDA-MB-231 breast
MDA-MB-435 = system: MDA-MB-435
MOLT-4 leukemia = system: MOLT-4 leukemia
NCI-H226 lung = system: NCI-H226 lung
NCI-H23 lung = system: NCI-H23 lung
NCI-H460 lung = system: NCI-H460 lung
NCI/ADR-RES ovarian = system: NCI/ADR-RES ovarian
OVCAR-3 ovarian = system: OVCAR-3 ovarian
OVCAR-4 ovarian = system: OVCAR-4 ovarian
OVCAR-5 ovarian = system: OVCAR-5 ovarian
PC-3 prostate = system: PC-3 prostate
RPMI-8226 leukemia = system: RPMI-8226 leukemia
RXF 393 renal = system: RXF 393 renal
SF-268 CNS = system: SF-268 CNS
SF-295 CNS = system: SF-295 CNS
SF-539 CNS = system: SF-539 CNS
SK-MEL-2 melanoma = system: SK-MEL-2 melanoma
SK-MEL-28 melanoma = system: SK-MEL-28 melanoma
SK-MEL-5 melanoma = system: SK-MEL-5 melanoma
SK-OV-3 ovarian = system: SK-OV-3 ovarian
SNB-19 CNS = system: SNB-19 CNS
SNB-75 CNS = system: SNB-75 CNS
SW-620 colon = system: SW-620 colon
T-47D breast = system: T-47D breast
TK-10 renal = system: TK-10 renal
U251 CNS = system: U251 CNS
UACC-257 melanoma = system: UACC-257 melanoma
UACC-62 melanoma = system: UACC-62 melanoma
UO-31 renal = system: UO-31 renal
HL-60(TB) leukemia = system: HL-60(TB) leukemia
HS 578T breast = system: HS 578T breast
HT29 colon = system: HT29 colon
NCI-H522 lung = system: NCI-H522 lung
OVCAR-8 ovarian = system: OVCAR-8 ovarian
SR leukemia = system: SR leukemia
IGROV1 ovarian = system: IGROV1 ovarian
MALME-3M melanoma = system: MALME-3M melanoma

COc1ccc(C2c3c(n(C)c(=O)n(C)c3=O)OC(N(C)C)(N(C)C)C2(F)F)cc1 (centres undefined)
> 100 µM: TGI (786-0 renal) | TGI (A498 renal) | TGI (A549 NSCLC) | TGI (ACHN renal) | TGI (BT-549 breast) | TGI (CAKI-1 renal) | TGI (CCRF-CEM leukemia) | TGI (COLO 205 colon) | TGI (DU-145 prostate) | TGI (EKVX NSCLC) | TGI (HCC-2998 colon) | TGI (HCT-116 colon) | TGI (HCT-15 colon) | TGI (HOP-62 NSCLC) | TGI (HOP-92 NSCLC) | TGI (K-562 leukemia) | TGI (KM12 colon) | TGI (LOX IMVI melanoma) | TGI (M14 melanoma) | TGI (MCF7 breast) | TGI (MDA-MB-231 breast) | TGI (MDA-MB-435) | TGI (MOLT-4 leukemia) | TGI (NCI-H226 lung) | TGI (NCI-H23 lung) | TGI (NCI-H460 lung) | TGI (NCI/ADR-RES ovarian) | TGI (OVCAR-3 ovarian) | TGI (OVCAR-4 ovarian) | TGI (OVCAR-5 ovarian) | TGI (PC-3 prostate) | TGI (RPMI-8226 leukemia) | TGI (RXF 393 renal) | TGI (SF-268 CNS) | TGI (SF-295 CNS) | TGI (SF-539 CNS) | TGI (SK-MEL-2 melanoma) | TGI (SK-MEL-28 melanoma) | TGI (SK-MEL-5 melanoma) | TGI (SK-OV-3 ovarian) | TGI (SNB-19 CNS) | TGI (SNB-75 CNS) | TGI (SW-620 colon) | TGI (T-47D breast) | TGI (TK-10 renal) | TGI (U251 CNS) | TGI (UACC-257 melanoma) | TGI (UACC-62 melanoma) | TGI (UO-31 renal)

COC(=O)/C=C1/SC(=Nc2ccc(C(F)(F)F)cc2)N(CCc2c[nH]c3ccc(O)cc23)C1=O
5.25 µM: TGI (SR leukemia)
3.99 µM: TGI (SK-MEL-5 melanoma)
2.59 µM: TGI (RXF 393 renal)
3.26 µM: TGI (RPMI-8226 leukemia)
3.22 µM: TGI (SK-MEL-2 melanoma)
5.17 µM: TGI (UACC-257 melanoma)
5.36 µM: TGI (SF-268 CNS)
8.96 µM: TGI (NCI/ADR-RES ovarian)
3.79 µM: TGI (NCI-H460 lung)
3.43 µM: TGI (HT29 colon)
active: GI50 (MOLT-4 leukemia) 0.349 µM | GI50 (SR leukemia) 0.416 µM
2.68 µM: TGI (LOX IMVI melanoma)
inactive: GI50 (A549 NSCLC) 3.05 µM | GI50 (CAKI-1 renal) 2.71 µM | GI50 (CCRF-CEM leukemia) 0.569 µM | GI50 (DU-145 prostate) 2.21 µM | GI50 (EKVX NSCLC) 3.2 µM | GI50 (HCC-2998 colon) 1.94 µM | GI50 (HL-60(TB) leukemia) 1.57 µM | GI50 (HOP-62 NSCLC) 1.75 µM | GI50 (HS 578T breast) 1.87 µM | GI50 (HT29 colon) 1.75 µM | GI50 (K-562 leukemia) 1.55 µM | GI50 (LOX IMVI melanoma) 1.25 µM | GI50 (MDA-MB-231 breast) 1.91 µM | GI50 (NCI-H460 lung) 1.87 µM | GI50 (NCI-H522 lung) 1.5 µM | GI50 (NCI/ADR-RES ovarian) 2.16 µM | GI50 (OVCAR-8 ovarian) 1.62 µM | GI50 (RPMI-8226 leukemia) 0.722 µM | GI50 (RXF 393 renal) 1.16 µM | GI50 (SF-268 CNS) 1.69 µM | GI50 (SK-MEL-2 melanoma) 1.52 µM | GI50 (SK-MEL-5 melanoma) 1.86 µM | GI50 (SNB-75 CNS) 2.27 µM | GI50 (T-47D breast) 2.07 µM | GI50 (TK-10 renal) 2.25 µM | GI50 (U251 CNS) 1.46 µM | GI50 (UACC-257 melanoma) 1.94 µM
4.67 µM: TGI (MDA-MB-231 breast)
3.56 µM: TGI (HCC-2998 colon)
9.64 µM: TGI (T-47D breast)
6.69 µM: TGI (CCRF-CEM leukemia)
5.78 µM: TGI (HS 578T breast)
6.04 µM: TGI (OVCAR-8 ovarian)
6.65 µM: TGI (HL-60(TB) leukemia)
10.1 µM: TGI (MOLT-4 leukemia)
3.25 µM: TGI (NCI-H522 lung)
3.05 µM: TGI (U251 CNS)
> 100 µM: TGI (A549 NSCLC) | TGI (CAKI-1 renal) | TGI (DU-145 prostate) | TGI (EKVX NSCLC) | TGI (K-562 leukemia)
9.68 µM: TGI (SNB-75 CNS)
5.76 µM: TGI (TK-10 renal)
3.85 µM: TGI (HOP-62 NSCLC)

COCP1(=S)OC(C)CCN1C(C)C (centres undefined)
> 100 µM: TGI (786-0 renal) | TGI (A549 NSCLC) | TGI (ACHN renal) | TGI (BT-549 breast) | TGI (CAKI-1 renal) | TGI (COLO 205 colon) | TGI (DU-145 prostate) | TGI (EKVX NSCLC) | TGI (HCC-2998 colon) | TGI (HCT-116 colon) | TGI (HCT-15 colon) | TGI (HOP-62 NSCLC) | TGI (HT29 colon) | TGI (IGROV1 ovarian) | TGI (K-562 leukemia) | TGI (KM12 colon) | TGI (LOX IMVI melanoma) | TGI (M14 melanoma) | TGI (MALME-3M melanoma) | TGI (MCF7 breast) | TGI (MDA-MB-231 breast) | TGI (MDA-MB-435) | TGI (NCI-H226 lung) | TGI (NCI-H23 lung) | TGI (NCI-H460 lung) | TGI (NCI/ADR-RES ovarian) | TGI (OVCAR-3 ovarian) | TGI (OVCAR-4 ovarian) | TGI (OVCAR-5 ovarian) | TGI (OVCAR-8 ovarian) | TGI (PC-3 prostate) | TGI (RPMI-8226 leukemia) | TGI (SF-268 CNS) | TGI (SF-295 CNS) | TGI (SF-539 CNS) | TGI (SK-MEL-2 melanoma) | TGI (SK-MEL-5 melanoma) | TGI (SK-OV-3 ovarian) | TGI (SNB-19 CNS) | TGI (SR leukemia) | TGI (SW-620 colon) | TGI (T-47D breast) | TGI (TK-10 renal) | TGI (U251 CNS) | TGI (UACC-257 melanoma) | TGI (UACC-62 melanoma) | TGI (UO-31 renal)
